Assay results taken from US20240318160A1 (Wisconsin Alumni Research Foundation, priority 2023, published 2024).
“And” between values parts separate entries of the source, which are not always exact repeats. Identical values can stand only once.

Experiments:
Experiment in all cases: TAL and PAL enzyme kinetics
Assay type in all cases: biochemical
Details in all cases: PAL assay (L-Phe), pH 8.5, 30° C.
[1] = test system: Ecdeiocolea monostachya EmoPAL variant F134H (EmoPAL^F134H)
Method: (§1) A mixture containing 100 mM Tris-HCl (pH 8.5), 1% glycerol, and purified enzyme in a total volume of 50 μl was preincubated for 3 min at 30° C. […] The reactions were terminated by addition of 6N acetic acid (10 μl).
(§2) The kinetic parameters of the recombinant enzymes were determined using HPLC. Reaction mixtures containing 100 mM Tris-HCl (pH 8.5), 1% glycerol, and purified enzyme (0.15 μg for PAL assay and 1 μg for TAL assay) in a 50 μl total volume were preincubated for 3 min at 30° C. […] After 10 min and 20 min incubations for PAL and TAL assay, respectively, at 30° C., the reaction was terminated by addition of 6N acetic acid (10 μl). […] The products were quantified using calibration curves generated using authentic standards. Non-linear hyperbolic regression analyses were conducted using the Excel Solver tool to calculate Km and Vmax values.

[2] = test system: Ecdeiocolea monostachya EmoPAL, wild type
Method: as §1, §2

[3] = test system: Ecdeiocolea monostachya EmoPTAL variant H127F (EmoPTAL^H127F)
Method: as §1, §2

[4] = test system: Ecdeiocolea monostachya EmoPTAL, wild type
Method: as §1, §2

[5] = test system: Joinvillea ascendens JaPAL variant F140H (JaPAL^F140H), SEQ ID NO: 259
Method: as §1, §2

[6] = test system: Joinvillea ascendens JaPAL, wild type, SEQ ID NO: 28
Method: as §1, §2

[7] = test system: Joinvillea ascendens JaPTAL (SEQ ID NO: 27) variant H125F (JaPTAL^H125F)
Method: as §1, §2

[8] = test system: Joinvillea ascendens JaPTAL (SEQ ID NO: 27) variant H125F/I97S (JaPTAL^H125F_I97S)
Method: as §1, §2

[9] = test system: Joinvillea ascendens JaPTAL, wild type, SEQ ID NO: 27
Method: as §1, §2

[10] = test system: Sorghum bicolor SbPAL variant F135H (SbPAL^F135H)
Method: as §1, §2

[11] = test system: Sorghum bicolor SbPAL, wild type
Method: as §1, §2

[12] = test system: Streptochaeta angustifolia SaPTAL-a variant H118F (SaPTAL-a^H118F)
Method: as §1, §2

[13] = test system: Streptochaeta angustifolia SaPTAL-a, wild type
Method: as §1, §2

[14] = test system: Streptochaeta angustifolia SaPTAL-b variant H126F (SaPTAL-b^H126F)
Method: as §1, §2

[15] = test system: Streptochaeta angustifolia SaPTAL-b, wild type
Method: as §1, §2

N[C@@H](Cc1ccccc1)C(=O)O [L-Phe, phenylalanine]
Km [1]: 1310 ± 25.6 µM
kcat [1]: 0.42 ± 0.01 s⁻¹
kcat/Km [1]: 320 ± 10 M⁻¹ s⁻¹
Km [2]: 27.7 ± 1.9 µM
kcat [2]: 1.23 ± 0.02 s⁻¹
kcat/Km [2]: 44700 ± 2390 M⁻¹ s⁻¹
Km [3]: 3.6 ± 0.5 µM
kcat [3]: 0.12 ± 0.00 s⁻¹
kcat/Km [3]: 32620 ± 2120 M⁻¹ s⁻¹
Km [4]: 64.1 ± 3.1 µM
kcat [4]: 0.48 ± 0.00 s⁻¹
kcat/Km [4]: 7540 ± 390 M⁻¹ s⁻¹
Km [5]: 697 ± 169 µM
kcat [5]: 0.60 ± 0.04 s⁻¹
kcat/Km [5]: 890 ± 180 M⁻¹ s⁻¹
Km [6]: 24 µM and 24.4 µM
kcat [6]: 1.9 s⁻¹ and 1.92 ± 0.01 s⁻¹
kcat/Km [6]: 78600 ± 0 M⁻¹ s⁻¹
Km [7]: 6.8 ± 0.7 µM
kcat [7]: 0.08 ± 0.00 s⁻¹
kcat/Km [7]: 12280 ± 710 M⁻¹ s⁻¹
Km [8]: 9.42 ± 0.8 µM
kcat [8]: 0.02 ± 0.00 s⁻¹
kcat/Km [8]: 1660 ± 120 M⁻¹ s⁻¹
Km [9]: 66 µM and 65.6 µM
kcat [9]: 0.5 s⁻¹ and 0.45 ± 0.02 s⁻¹
kcat/Km [9]: 6800 ± 180 M⁻¹ s⁻¹
Km [10]: 1050 ± 58.5 µM
kcat [10]: 0.88 ± 0.05 s⁻¹
kcat/Km [10]: 840 ± 20 M⁻¹ s⁻¹
Km [11]: 43.9 ± 2.7 µM
kcat [11]: 0.97 ± 0.02 s⁻¹
kcat/Km [11]: 22050 ± 1080 M⁻¹ s⁻¹
Km [12]: 6 ± 0.8 µM
kcat [12]: 0.20 ± 0.00 s⁻¹
kcat/Km [12]: 33600 ± 5100 M⁻¹ s⁻¹
Km [13]: 154 ± 3.7 µM
kcat [13]: 0.39 ± 0.01 s⁻¹
kcat/Km [13]: 2510 ± 30 M⁻¹ s⁻¹
Km [14]: 6.3 ± 0.5 µM
kcat/Km [14]: 37050 ± 2120 M⁻¹ s⁻¹
Km [15]: 227.4 ± 1.5 µM
